Read-outs that look alike come from different tables or passages of the source.
Key:
[1] = molecular target: AdhE (Escherichia coli, UniProt P0A9Q7); assay: NADH consumption at […] nm, specific activity; type: biochemical; details: 5 mM substrate, 0.2 mM NADH, 100 mM PBS pH 8.0, 30°C
[2] = test system: OYE2p; details: read-out: Enzyme / Y84V, 100 mM PBS pH 8.0, 30°C
[3] = molecular target: T1, YahK (Escherichia coli, UniProt P75691); assay: NADH consumption at […] nm, specific activity; type: biochemical; details: 5 mM substrate, 0.2 mM NADH, 100 mM PBS pH 8.0, 30°C
T1 sequence (P75691 1-349): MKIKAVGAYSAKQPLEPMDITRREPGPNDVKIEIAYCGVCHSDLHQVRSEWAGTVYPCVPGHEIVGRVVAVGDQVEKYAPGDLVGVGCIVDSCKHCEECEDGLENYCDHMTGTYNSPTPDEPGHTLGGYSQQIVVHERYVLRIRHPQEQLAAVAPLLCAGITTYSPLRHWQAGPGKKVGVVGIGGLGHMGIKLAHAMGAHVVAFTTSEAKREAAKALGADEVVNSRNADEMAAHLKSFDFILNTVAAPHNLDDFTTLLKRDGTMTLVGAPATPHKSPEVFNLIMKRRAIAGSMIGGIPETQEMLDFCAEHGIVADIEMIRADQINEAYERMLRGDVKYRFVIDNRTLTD

Sequence of AdhE (P0A9Q7 2-891): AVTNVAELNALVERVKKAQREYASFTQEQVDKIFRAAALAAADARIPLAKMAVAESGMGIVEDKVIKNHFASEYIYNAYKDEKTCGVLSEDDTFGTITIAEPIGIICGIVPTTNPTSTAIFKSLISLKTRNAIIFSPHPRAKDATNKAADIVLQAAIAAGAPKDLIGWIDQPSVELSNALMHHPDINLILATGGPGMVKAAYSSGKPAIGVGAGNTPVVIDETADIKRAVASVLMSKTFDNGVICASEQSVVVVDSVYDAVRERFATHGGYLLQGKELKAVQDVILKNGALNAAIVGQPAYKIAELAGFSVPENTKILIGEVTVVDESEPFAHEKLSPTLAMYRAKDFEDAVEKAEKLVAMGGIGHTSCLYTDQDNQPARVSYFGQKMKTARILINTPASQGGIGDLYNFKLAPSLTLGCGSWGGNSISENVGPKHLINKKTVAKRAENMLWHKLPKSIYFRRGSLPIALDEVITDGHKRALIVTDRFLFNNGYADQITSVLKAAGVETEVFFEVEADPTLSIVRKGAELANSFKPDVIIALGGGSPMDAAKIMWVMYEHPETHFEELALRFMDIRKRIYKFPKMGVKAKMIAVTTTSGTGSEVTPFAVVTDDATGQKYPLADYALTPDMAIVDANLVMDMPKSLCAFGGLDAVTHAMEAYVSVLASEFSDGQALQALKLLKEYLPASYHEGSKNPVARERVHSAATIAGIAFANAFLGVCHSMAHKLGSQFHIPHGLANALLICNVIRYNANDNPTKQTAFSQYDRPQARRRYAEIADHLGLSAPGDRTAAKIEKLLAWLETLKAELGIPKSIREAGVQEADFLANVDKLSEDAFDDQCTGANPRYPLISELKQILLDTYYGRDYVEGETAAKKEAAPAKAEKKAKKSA

Row | Structure (SMILES) | NADH consumption at 340 nm, specific activity [1] | Km ([2]; 0.2 mM NADH) [µM] | Km ([2]; 5 mM (E/Z)-citral) [µM] | NADH consumption at 340 nm, specific activity [3]
1 | CC(C)=CCC/C(C)=C/C=O [(E)-citral] | these enzymes have catalytic activity for the tested substrates | 107 ± 26 |  | 
2 | CC(C)=CCC/C(C)=C\C=O [(Z)-citral] |  | 326 ± 84 |  | 
3 | NC(=O)C1=CN([C@@H]2O[C@H](COP(=O)(O)OP(=O)(O)OC[C@H]3O[C@@H](n4cnc5c(N)ncnc54)[C@H](O)[C@@H]3O)[C@@H](O)[C@H]2O)C=CC1 [NADH] |  |  | 27 ± 8 | 
4 | CC(C)=CCCC(C)CC=O (stereo not drawn) [citronellal] | approximately twice higher than that of AdhE and YahK |  |  | approximately twice higher than that of AdhE and YahK
